Tests used:
Format in all cases: in vivo, human
[1] = system: patient under morphine treatment; experiment: Sleepiness evaluated on the Epworth scale in hospitalized patients under morphine treatment
Description: the Epworth scale, while ensuring the analgesic properties of morphine and the properties of antidepressant, anxiolytic or analgesic medicaments are maintained. The patient is thus re-established in a satisfactory relational life.
(§1) In order to illustrate the invention, but without limiting its scope, the results of observations made confidentially on patients in the context of hospitalization are reported below. The consent of the patients was obtained after the compassionate grounds of the prescription had been explained to them.

[2] = system: patient under morphine treatment; experiment: Pain rating on the EVA scale in patients
Description: as §1

[3] = Body weight (nutritional recovery) of patient; settings: Case 1; in 10 days, under Moscontin plus Modiodal 200 mg
Method: Given the progression of painful phenomena, at the end of October 1997 the patient is hospitalized. At this point in time the dosage of Moscontin® is 100 mg twice every 24 hours, their EVA score is 60, and their sleepiness evaluated on the Epworth scale is 20. The Moscontin® is increased to 160 mg twice every 24 hours. After stabilization of the analgesic level at an EVA score of 30, treatment with Modiodal®, initially in a dosage of 100 mg and then rapidly 200 mg, is initiated. This dosage allows their Epworth score to drop below 10. This quality of awakening has enabled them to resume family relationships of a better quality. The efficacy of the analgesia and their better vigilance level has enabled them to take accompanied walks. A nutritional recovery manifesting itself by a weight increase of 2 kg in 10 days is also to be noted in this patient.

[4] = Case 2, Skenan doses doubled combined with 200 mg Modiodal
[5] = Case 5, morphine treatment at home (oral)

SMILES: NC(=O)C[S+]([O-])C(c1ccccc1)c1ccccc1 (stereo not drawn) [Modiodal®, benzhydrylsulphinyl-acetamide]
- Epworth score ([1]; Case 1, Modiodal 100 mg then 200 mg, with Moscontin 160 mg twice every 24 hours): below 10
- vigilance level rating (Epworth) [1, 4]: less than 10
- state of vigilance rating (Epworth) ([1]; Case 3, Modiodal 100 mg then 200 mg, with morphine 40 mg subcutaneous): 12
- sleepiness index after modafinil ([1]; Case 4, modafinil 300 mg achieved progressively, with Moscontin 100 mg x2): 11
- sleepiness index after modafinil ([1]; Case 5, modafinil 200 mg per day, with morphine 40 mg subcutaneous): 15
- clinical results (in words) ([1]; about 200 to 400 mg per day, in 1 or 2 doses): very favourable results
- effect on morphine sleepiness and that associated with clonazepam (in words) ([1]; summary of pilot cases 1 to 5): efficacy
- EVA (analgesic level) [2, 4]: 20
- weight increase [3]: 2 kg

SMILES: O=C(C[S+]([O-])C(c1ccccc1)c1ccccc1)NO (stereo not drawn) [Olmifon®, benzhydrylsulphinyl-acetohydroxamic acid]
- clinical results (in words) ([1]; about 1,200 to 1,800 mg per day, in 2 doses): very favourable results

SMILES: CN1CC[C@]23c4c5ccc(O)c4O[C@H]2[C@@H](O)C=C[C@H]3[C@H]1C5 [morphine]
- state of sleepiness on the Epworth scale ([1]; Case 3, morphine 40 mg subcutaneous, before Modiodal): 20
- sleepiness (in words) [1, 5]: severe sleepiness
- sleepiness index before modafinil ([1]; Case 5, under morphine, before modafinil): 22
- pain rating on the EVA scale ([2]; Case 3, continuous subcutaneous morphine combined with oral clonazepam): 30
- EVA [2, 5]: 40

— patent US20030008925A1, “Treatment of drug-induced sleepiness” (priority 1997, published 2003)
